Source: the NIST ThermoML archive (doi:10.1007/s10765-008-0482-1)
Where “and” joins values, the source holds several entries; their conditions need not be identical. Equal values may be shown once.

Assay: xn = mol fraction of the nth substance listed
Conditions: Fluid (supercritical or subcritical phases), Parallel plate method

CC [ethane] + O=C=O
Conditions | thermal conductivity
295.7 K, Amount density=6960 mol/m3, x2 = 0.5 | 0.0639 W/m/K
295.73 K, Amount density=6710 mol/m3, x2 = 0.26 | 0.0845 W/m/K
295.76 K, Amount density=7450 mol/m3, x2 = 0.25 | 0.0843 W/m/K
295.87 K, Amount density=7450 mol/m3, x2 = 0.25 | 0.0833 W/m/K
295.98 K, Amount density=7450 mol/m3, x2 = 0.25 | 0.0881 W/m/K
296.02 K, Amount density=7530 mol/m3, x2 = 0.5 | 0.0642 W/m/K
296.02 K, Amount density=7730 mol/m3, x2 = 0.5 | 0.0595 W/m/K
296.03 K, Amount density=9120 mol/m3, x2 = 0.74 | 0.0663 W/m/K
296.04 K, Amount density=5650 mol/m3, x2 = 0.5 | 0.047 W/m/K
296.05 K, Amount density=6630 mol/m3, x2 = 0.74 | 0.0507 W/m/K
296.05 K, Amount density=6710 mol/m3, x2 = 0.26 | 0.099 W/m/K and 0.101 W/m/K
296.06 K, Amount density=435 mol/m3, x2 = 0.5 | 0.0196 W/m/K
296.06 K, Amount density=6630 mol/m3, x2 = 0.74 | 0.0506 W/m/K
296.06 K, Amount density=8450 mol/m3, x2 = 0.25 | 0.112 W/m/K
296.07 K, Amount density=2940 mol/m3, x2 = 0.5 | 0.0278 W/m/K
296.07 K, Amount density=6960 mol/m3, x2 = 0.5 | 0.062 W/m/K
296.07 K, Amount density=7450 mol/m3, x2 = 0.25 | 0.0888 W/m/K
296.1 K, Amount density=6710 mol/m3, x2 = 0.26 | 0.0958 W/m/K
296.11 K, Amount density=8450 mol/m3, x2 = 0.25 | 0.11 W/m/K
296.12 K, Amount density=446 mol/m3, x2 = 0.25 | 0.0209 W/m/K
296.14 K, Amount density=2940 mol/m3, x2 = 0.25 | 0.0304 W/m/K
296.14 K, Amount density=10780 mol/m3, x2 = 0.25 | 0.0692 W/m/K
296.18 K, Amount density=5680 mol/m3, x2 = 0.25 | 0.075 W/m/K
296.18 K, Amount density=7490 mol/m3, x2 = 0.25 | 0.0914 W/m/K
296.19 K, Amount density=5680 mol/m3, x2 = 0.25 | 0.0751 W/m/K
296.2 K, Amount density=6830 mol/m3, x2 = 0.25 | 0.0909 W/m/K
296.21 K, Amount density=8450 mol/m3, x2 = 0.25 | 0.107 W/m/K
296.22 K, Amount density=6830 mol/m3, x2 = 0.25 | 0.0855 W/m/K
296.22 K, Amount density=7450 mol/m3, x2 = 0.25 | 0.0888 W/m/K and 0.099 W/m/K
296.24 K, Amount density=2940 mol/m3, x2 = 0.25 | 0.0312 W/m/K
296.24 K, Amount density=6710 mol/m3, x2 = 0.26 | 0.118 W/m/K
296.29 K, Amount density=5680 mol/m3, x2 = 0.25 | 0.0757 W/m/K
296.31 K, Amount density=7490 mol/m3, x2 = 0.25 | 0.102 W/m/K
296.34 K, Amount density=6710 mol/m3, x2 = 0.26 | 0.159 W/m/K
296.34 K, Amount density=7490 mol/m3, x2 = 0.25 | 0.107 W/m/K
296.36 K, Amount density=6710 mol/m3, x2 = 0.26 | 0.166 W/m/K
296.38 K, Amount density=6710 mol/m3, x2 = 0.26 | 0.147 W/m/K and 0.193 W/m/K and 0.172 W/m/K
296.39 K, Amount density=6710 mol/m3, x2 = 0.26 | 0.166 W/m/K
296.4 K, Amount density=6710 mol/m3, x2 = 0.26 | 0.18 W/m/K
296.4 K, Amount density=7450 mol/m3, x2 = 0.25 | 0.124 W/m/K
296.4 K, Amount density=7490 mol/m3, x2 = 0.25 | 0.114 W/m/K
296.41 K, Amount density=7450 mol/m3, x2 = 0.25 | 0.117 W/m/K
296.44 K, Amount density=6710 mol/m3, x2 = 0.26 | 0.167 W/m/K
296.44 K, Amount density=7490 mol/m3, x2 = 0.25 | 0.124 W/m/K and 0.13 W/m/K
296.45 K, Amount density=5680 mol/m3, x2 = 0.25 | 0.0719 W/m/K
296.46 K, Amount density=6830 mol/m3, x2 = 0.25 | 0.102 W/m/K
296.52 K, Amount density=2940 mol/m3, x2 = 0.25 | 0.0308 W/m/K
296.52 K, Amount density=6710 mol/m3, x2 = 0.26 | 0.135 W/m/K
296.52 K, Amount density=7450 mol/m3, x2 = 0.25 | 0.131 W/m/K
296.54 K, Amount density=7490 mol/m3, x2 = 0.25 | 0.166 W/m/K
296.56 K, Amount density=446 mol/m3, x2 = 0.25 | 0.0209 W/m/K
296.58 K, Amount density=7450 mol/m3, x2 = 0.25 | 0.157 W/m/K
296.62 K, Amount density=7450 mol/m3, x2 = 0.25 | 0.184 W/m/K
